Assay: relative thermodynamic stability of solid forms of Compound I as a function of water activity
Type: physicochemical
Conditions: from about 0 to 0.5 or 0.6 water activity at room temperature

O=C(CCc1c(-c2ccc(F)cc2)[nH]c2ccccc12)N[C@@H]1C(=O)NC[C@H]1O [Compound 1 Form B]
thermodynamic stability relative to other forms of the compound: most thermodynamically stable form

Source: patent US20210246121A1, “SOLID FORMS OF APOL1 INHIBITOR AND METHODS OF USING SAME” (Vertex Pharmaceuticals Incorporated, priority 2020, published 2021)
